Laboratory results from patent publication US20170131257A1, “SYSTEMS AND METHODS OF REMOVING AND MANAGING HEAVY METALS” (priority 2007, published 2017).

Experiments:
[1] = test system: Zebra Fish; format: in vivo
Method: Following EPA Method 7473, a total of 44 Zebra fish were randomized into four one gallon tanks and fed an experimental or control diet for 6 days. On the seventh day the fish were not fed so that any food being digested would have been absorbed or eliminated. The fish were fed 1.0 gram of food twice a day the first day. On the second day the fish were fed 0.5 grams twice a day. On days 3-6 the fish were fed 0.5 gram once a day.
The control and experimental feed was prepared using:
9.8 g. Frozen Thawed Brine Shrimp
The corn starch and water were boiled for 2 minutes then mixed with the remaining ingredients. The basic food was divided into four groups. The study groups consisted of: the control (Group C), an experimental group in which phytic acid di-sodium salt was added to the feed at 5% by […] (Group A), an experimental group in which 15 μg mercuric iodide salt per gram of food was added (Group B), and lastly Group D in which fish were fed the above stated amounts of mercuric iodide salt and phytic acid di-sodium salt.
The analysis was conducted by a contracted company, Northwest Pacific Labs. Samples were stratified by treatment and randomly sampled. A test of atomic absorption was used to determine absorbed mercury, after calibrating the instrument.

[2] = Chelation between mercury and phytic acid at different pH levels; settings: pH levels including acidic levels commonly found in the stomach
Text: An amount of food 72 that may contain a concentration of the heavy metal (“contaminated food”) is consumed with an amount of the ligand 74, or, near the time of consuming the ligand 74. In one implementation, the ligand 74 is phytic acid. The ligand 74 is preferably in an amount suitable for at least substantially bonding to the mercury contained within the food 72. The ligand 74 may be prepared in the form of a marinade or sauce directly applied to the food 72, or may be a separate supplement such as a pill, alternate food source, or the like. Ingestion 76 may provide mixing of the food 72 and ligand 74. When the food 72 and ligand 74 are mixed, then chelation 78 causes the mercury or other heavy metal in the food 72 to bond to the ligand 74, thereby forming a chelate 82. The chelate 82 causes food 72 containing some mercury to become a clean food 80, substantially free of the mercury. The clean food 80 proceeds to normal digestion 84, while the chelate 82 proceeds to safe egestion 86 from the body. Thus, the mercury contained within food 72 is passed through the living organism without digestion 84.

[3] = Mercury binding test of substrates in a salt solution

## O=P(O)(O)O[C@H]1[C@H](OP(=O)(O)O)[C@@H](OP(=O)(O)O)[C@H](OP(=O)(O)O)[C@@H](OP(=O)(O)O)[C@H]1OP(=O)(O)O [Phytic Acid, phytic acid]
[1]; Group D (phytic acid plus mercury) vs mercury alone, baselines of mercury controlled for, seven day time frame
  reduction of mercury absorption: 50%
[1]; Group D: phytic acid 5% per wt. and 15 micrograms HgI2 per gram food, fed 6 days, N=4
  Total Hg Wet Weight, Mean: .1047
[1]; weighted sample, Mann-Whitney test, Sig=0.000
  absorbed mercury, group D vs mercury-alone group B: less absorbed mercury
[2]
  chelation with mercury across pH: can occur at a wide range of pH levels
[3]
  binding of mercury by the substrate: would bind mercury
